Data on 13 compounds can be found in patent publication US10041115B2, “3′-OH unblocked, fast photocleavable terminating nucleotides and methods for nucleic acid sequencing” (LASERGEN, INC., priority 2011, dated 2018).

This assay is described as follows: Photochemical cleavage assays of incorporated nucleotide analogs (365 nm UV light, DT50). It counts as physicochemical. The note with it: for DT50 in 1 mM NaN3, 50 mM DTT / DT50 in 1 mM NaN3, No DTT: 365 nm UV, 0.70 W/cm^2; for DT50 value of ds1 isomer compared with the parent dA.I analog: ds1 isomers of the α-isopropyl C^7-HOMedA set; for faster photochemical cleavage rates of ds2 isomers compared with their ds1 counterparts, factor: ds2 vs ds1 isomer of the same analog; for DT50 values: UV photochemical cleavage experiments; for rate increases, dG.V.c compared with dG.V.a: same isomer (ds1 or ds2) of dG.V.c vs dG.V.a; for faster photochemical cleavage rates compared with the corresponding 4-OMe isomers: 5-OMe vs 4-OMe. Here is the method: As used herein, the term “DT50” refers to the amount of time required to cleavage 50% of the base analog incorporated in the primer-template complex.
To compare the rates of photochemical cleavage between the nucleotide analogs described here, a protocol was developed to deliver a daily light intensity output of 0.70±0.01 W/cm^2 to samples, see below.
The power supply was turned on for about 30 min prior to that of the lamp and recirculation bath as described by the manufacturer. The IR liquid filter was cooled to 9° C. Light intensity was determined using a model PM100 power meter (Thorlabs), a 1000 μm pinhole (Edmund Optics), a modified 0.5 mL Eppendorf tube cut in half, and a 3-axis manual translation stage (Newport), see FIG. 5. The half cut Eppendorf tube was positioned in front of the pinhole and power meter detector head to account for the geometric shape distortion of the light as it passes through a reaction solution. The translation stage was then used to align the tube/pinhole/detector device with the highest intensity from the arc beam.
To stabilize its output, the lamp was left on for one hour prior to intensity measurements. Thereafter, the measured power was adjusted by increasing the current from the power supply. In order to achieve intensity (I) of 0.70 W/cm^2, the measured power (P) was adjusted to ˜5.5 mW, according to the equation:
[formula] where r is the radius of pinhole.
The beam was then focused by placing an 0.5 mL Eppendorf tube into the sample holder, the tube of which was modified with an internal alignment card to provide reference lines for volume heights of 10 μL and 20 μL, see FIG. 5. The reference lines enabled the beam to be centered for a given reaction volume. Beam alignment was further verified by observing the mercury arc image of the lamp produced by the rear reflector. A second alignment card was placed into the rotating sample holder to view the image, which when properly aligned using the reflector would produce an inverted arc image on the arc gap itself. This step ensured that arc hotspots were not superimposed, which could cause overheating while maintaining a power output of ˜5.5 mW. The speed of the rotating sample holder was adjusted within a range of 1,200-1,350 rpm using a Nova-Strobe DA Plus stroboscope (Monarch Instrument) by adjusting the motor's torque with an adjustment screw.
Photochemical cleavage assays: Nucleotide analogs were incorporated using 10 μL reactions, as described for the PEP assays, at a final concentration of 100 nM. […] OligoTemplate-2, oligoTemplate-5, and oligoTemplate-4 each hybridized with BODIPY-FL labeled primer-1 were used for C^7-HOMedA, C^7-HOMedG, and HOMedU analogs, respectively. OligoTemplate-8 hybridized with BODIPY-FL labeled primer-3 was used to assay HOMedC analogs. Incorporated reactions were quenched with either 1 mM sodium azide solution; 1 mM sodium azide, 50 mM DTT solution; or reagents C-G (see key in FIG. 4), exposed to 365 nm ultraviolet (UV) light for various time points using our UV deprotector, and then placed on ice.

[1] abbreviates: Table 3, reversible terminators.
Setting [2] is: Table 3, reversible terminators, [a] transient product considered as cleaved product.
Where [3] appears, read: Table 1, C^7-HOMedA analogs, average ± 1SD, triplicate.
[4] abbreviates: Table 2, C^7-HOMedG analogs, average ± 1SD, triplicate.
Where [5] appears, read: α-tert-butyl C^7-HOMedG analogs.
Setting [6] is: α-tert-butyl C^7-HOMedG analogs, ds1 isomers.

`COc1ccc([N+](=O)[O-])c([C@@H](OCc2cn([C@H]3C[C@H](O)[C@@H](COP(=O)(O)OP(=O)(O)OP(=O)(O)O)O3)c(=O)nc2N)C(C)(C)C)c1` [dC.VI, 5-[(S)-1-(5-methoxy-2-nitrophenyl)-2,2-dimethyl-propyloxy]methyl-2′-deoxycytidine-5′-triphosphate]: under setting [1], the “DT50 in 1 mM NaN3, 50 mM DTT” value amounted to 0.6 ± 0.1 s. Also, the “DT50 in 1 mM NaN3, No DTT” value under setting [2] was 0.6 ± 0.1^[a] sec.

For the compound `COc1ccc([N+](=O)[O-])c([C@@H](OCc2cn([C@H]3C[C@H](O)[C@@H](COP(=O)(O)OP(=O)(O)OP(=O)(O)O)O3)c3nc(N)[nH]c(=O)c23)C(C)(C)C)c1` [dG.VI, 7-[(S)-1-(5-methoxy-2-nitrophenyl)-2,2-dimethyl-propyloxy]methyl-7-deaza-2′-deoxyguanosine-5′-triphosphate], under setting [1], the “DT50 in 1 mM NaN3, 50 mM DTT” value worked out at 0.8 ± 0.1 s. Besides, the “DT50 in 1 mM NaN3, No DTT” value under setting [2] was found to be 0.8 ± 0.1 s.

With `COc1ccc(C(OCc2cn([C@H]3C[C@H](O)[C@@H](COP(=O)(O)OP(=O)(O)OP(=O)(O)O)O3)c3ncnc(N)c23)C(C)C)c([N+](=O)[O-])c1` (single isomer, unassigned) [dA.III.b ds1, 7-[1-(4-methoxy-2-nitrophenyl)-2-methyl-propyloxy]methyl-7-deaza-2′-deoxyadenosine-5′-triphosphate], the “DT50 value of ds1 isomer compared with the parent dA.I analog” value was “higher”. Moreover, under setting [3], the “DT50 in 1 mM NaN3, 50 mM DTT” value worked out at 6.1 ± 0.4 s and the “DT50 in 1 mM NaN3, No DTT” value turned out to be 7.0 ± 0.3 s.

For the compound `CC(C)C(OCc1cn([C@H]2C[C@H](O)[C@@H](COP(=O)(O)OP(=O)(O)OP(=O)(O)O)O2)c2ncnc(N)c12)c1c([N+](=O)[O-])cccc1[N+](=O)[O-]` (single isomer, unassigned) [dA.III.c ds1, 7-[1-(2,6-dinitrophenyl)-2-methyl-propyloxy]methyl-7-deaza-2′-deoxyadenosine-5′-triphosphate], the “DT50 value of ds1 isomer compared with the parent dA.I analog” value is reported as “similar”. Further, under setting [3], the “DT50 in 1 mM NaN3, 50 mM DTT” value was 3.0 ± 0.2 s and the “DT50 in 1 mM NaN3, No DTT” value is 3.4 ± 0.2 s.

Take `COc1ccc(C(OCc2cn([C@H]3C[C@H](O)[C@@H](COP(=O)(O)OP(=O)(O)OP(=O)(O)O)O3)c3nc(N)[nH]c(=O)c23)C(C)(C)C)c([N+](=O)[O-])c1` (single isomer, unassigned) [dG.V.b ds2, 7-[1-(4-methoxy-2-nitrophenyl)-2,2-dimethyl-propyloxy]methyl-7-deaza-2′-deoxyguanosine-5′-triphosphate]: the “faster photochemical cleavage rates of ds2 isomers compared with their ds1 counterparts, factor” value is reported as 4.5 ×. Besides, under setting [4], the “DT50 in 1 mM NaN3, 50 mM DTT” value was 1.3 ± 0.2 s and the “DT50 in 1 mM NaN3, No DTT” value was found to be 1.1 ± 0.1 s.

With `CC(C)(C)[C@H](OCc1cn([C@H]2C[C@H](O)[C@@H](COP(=O)(O)OP(=O)(O)OP(=O)(O)O)O2)c2nc(N)[nH]c(=O)c12)c1ccccc1[N+](=O)[O-]` [dG.V, 7-[(S)-1-(2-nitrophenyl)-2,2-dimethyl-propyloxy]methyl-7-deaza-2′-deoxyguanosine-5′-triphosphate], under setting [1], the “DT50 in 1 mM NaN3, 50 mM DTT” value amounted to 2.9 ± 0.2 s. For the same compound, the “DT50 in 1 mM NaN3, No DTT” value under setting [2] was 3.0 ± 0.1 s.

As for `COc1ccc([N+](=O)[O-])c(C(OCc2cn([C@H]3C[C@H](O)[C@@H](COP(=O)(O)OP(=O)(O)OP(=O)(O)O)O3)c3nc(N)[nH]c(=O)c23)C(C)(C)C)c1` (single isomer, unassigned) [dG.V.c ds2, 7-[1-(5-methoxy-2-nitrophenyl)-2,2-dimethyl-propyloxy]methyl-7-deaza-2′-deoxyguanosine-5′-triphosphate], the DT50 values is 0.8 s; the “faster photochemical cleavage rates of ds2 isomers compared with their ds1 counterparts, factor” value is 4.4 ×; the “rate increases, dG.V.c compared with dG.V.a” value was 4.4 ×. For the same compound, under setting [4], the “DT50 in 1 mM NaN3, 50 mM DTT” value was 0.8 ± 0.1 s and the “DT50 in 1 mM NaN3, No DTT” value was found to be 0.8 ± 0.1 s. Besides, the “faster photochemical cleavage rates compared with the corresponding 4-OMe isomers” value under setting [5] came out at 1.4 × fold.

In the case of `CC(C)C(OCc1cn([C@H]2C[C@H](O)[C@@H](COP(=O)(O)OP(=O)(O)OP(=O)(O)O)O2)c2ncnc(N)c12)c1c([N+](=O)[O-])cccc1[N+](=O)[O-]` (single isomer, unassigned) [dA.III.c ds2, 7-[1-(2,6-dinitrophenyl)-2-methyl-propyloxy]methyl-7-deaza-2′-deoxyadenosine-5′-triphosphate], the “faster photochemical cleavage rates of ds2 isomers compared with their ds1 counterparts, factor” value is listed as 1.2 ×. Further, under setting [3], the “DT50 in 1 mM NaN3, 50 mM DTT” value was determined as 2.5 ± 0.1 s and the “DT50 in 1 mM NaN3, No DTT” value is 2.8 ± 0.2 s.

For `COc1cc(C(OCc2cn([C@H]3C[C@H](O)[C@@H](COP(=O)(O)OP(=O)(O)OP(=O)(O)O)O3)c3nc(N)[nH]c(=O)c23)C(C)(C)C)c([N+](=O)[O-])cc1OC` (single isomer, unassigned) [dG.V.d ds2, 7-[1-(4,5-dimethoxy-2-nitrophenyl)-2,2-dimethyl-propyloxy]methyl-7-deaza-2′-deoxyguanosine-5′-triphosphate], the DT50 values came out at 0.8 s and the “faster photochemical cleavage rates of ds2 isomers compared with their ds1 counterparts, factor” value worked out at 3.0 ×. Under setting [4], the “DT50 in 1 mM NaN3, 50 mM DTT” value was 0.8 ± 0.1 s and the “DT50 in 1 mM NaN3, No DTT” value stood at 0.8 ± 0.1 s.

On to `COc1cc(C(OCc2cn([C@H]3C[C@H](O)[C@@H](COP(=O)(O)OP(=O)(O)OP(=O)(O)O)O3)c3nc(N)[nH]c(=O)c23)C(C)(C)C)c([N+](=O)[O-])cc1OC` (single isomer, unassigned) [dG.V.d ds1, 7-[1-(4,5-dimethoxy-2-nitrophenyl)-2,2-dimethyl-propyloxy]methyl-7-deaza-2′-deoxyguanosine-5′-triphosphate], for which, under setting [4], the “DT50 in 1 mM NaN3, 50 mM DTT” value is 2.3 ± 0.2 s and the “DT50 in 1 mM NaN3, No DTT” value came to 2.4 ± 0.1 s. Also, under setting [6], the “faster cleavage rates compared with mono-substituted 4-OMe isomer” value is given as 2.0 × and the “faster cleavage rates compared with mono-substituted 5-OMe isomer” value is 1.5 ×.

Turning to `COc1ccc([N+](=O)[O-])c(C(OCc2cn([C@H]3C[C@H](O)[C@@H](COP(=O)(O)OP(=O)(O)OP(=O)(O)O)O3)c3nc(N)[nH]c(=O)c23)C(C)(C)C)c1` (some centres unmarked) [dG.V.c ds1, 7-[1-(5-methoxy-2-nitrophenyl)-2,2-dimethyl-propyloxy]methyl-7-deaza-2′-deoxyguanosine-5′-triphosphate], the “rate increases, dG.V.c compared with dG.V.a” value is listed as 3.6 ×. Moreover, under setting [4], the “DT50 in 1 mM NaN3, 50 mM DTT” value came to 3.0 ± 0.1 s and the “DT50 in 1 mM NaN3, No DTT” value was determined as 3.5 ± 0.3 s. Further, under setting [5], the “faster photochemical cleavage rates compared with the corresponding 4-OMe isomers” value worked out at 1.4 × fold.

Turning to `COc1ccc([N+](=O)[O-])c([C@@H](OCc2cn([C@H]3C[C@H](O)[C@@H](COP(=O)(O)OP(=O)(O)OP(=O)(O)O)O3)c3ncnc(N)c23)C(C)(C)C)c1` [dA.VI, 7-[(S)-1-(5-methoxy-2-nitrophenyl)-2,2-dimethyl-propyloxy]methyl-7-deaza-2′-deoxyadenosine-5′-triphosphate], the “DT50 in 1 mM NaN3, 50 mM DTT” value under setting [1] worked out at 0.8 ± 0.1 s. Also, the “DT50 in 1 mM NaN3, No DTT” value under setting [2] is 0.8 ± 0.1^[a] sec.

In the case of `Nc1nc(=O)n([C@H]2C[C@H](O)[C@@H](COP(=O)(O)OP(=O)(O)OP(=O)(O)O)O2)cc1COCc1ccccc1[N+](=O)[O-]` [dC.I, 5-(2-nitrobenzyloxy)methyl-2′-deoxycytidine-5′-triphosphate], the DT50 values amounted to 2.0 s. For the same compound, under setting [1], the “DT50 in 1 mM NaN3, 50 mM DTT” value was found to be 1.6 ± 0.2 s. Under setting [2], the “DT50 in 1 mM NaN3, No DTT” value came out at 2.0 ± 0.3 s.
